Here are results for seven compounds from ChEMBL document CHEMBL4229535, “Design, synthesis and evaluation of oxime-functionalized nitrofuranylamides as novel antitubercular agents” (2018).

Holding throughout (format): functional
For assay [1], the system named is Mycobacterium tuberculosis. Briefly: Antimycobacterial activity against multidrug-resistant Mycobacterium tuberculosis isolate 16833 after 7 days by microplate alamar blue assay. The settings on record: isolate 16833, 168 h. A general note: Alamar Blue is a resazurin reagent that responds to reducing activity.
For assay [2], the system named is Mycobacterium tuberculosis. Kind of assay: Antimycobacterial activity against multidrug-resistant Mycobacterium tuberculosis isolate 16995 after 7 days by microplate alamar blue assay. The settings on record: isolate 16995, 168 h.
Assay [3] is described as follows: Resistance index, ratio of MIC>90 for multidrug-resistant Mycobacterium tuberculosis clinical isolate 16833 to MIC>90 for Mycobacterium tuberculosis H37Rv ATCC 27294.
A short description of assay [4]: Resistance index, ratio of MIC>90 for multidrug-resistant Mycobacterium tuberculosis clinical isolate 16995 to MIC>90 for Mycobacterium tuberculosis H37Rv ATCC 27294.

In brackets after ≈: the same amount, converted by molar mass.

Consider `O=C(c1ccc([N+](=O)[O-])o1)N1CCC(=NOCc2ccccc2)CC1`, for which the MIC90 (as a rule, the lowest concentration that inhibits either 90% of growth or 90% of the strains tested, depending on the study) amounted to 0.482 µg/mL (≈ 1.4 µM) in assay [1] and 0.426 µg/mL (≈ 1.24 µM) in assay [2]. For the same compound, the Ratio in assay [3] and in assay [4] was 1 each time.

`CON=C1CCN(C(=O)c2ccc([N+](=O)[O-])o2)CC1`: the MIC90 in assay [1] worked out at 1.91 µg/mL (≈ 7.16 µM); in assay [2], 1.94 µg/mL (≈ 7.24 µM). Also, the Ratio in assay [3] and in assay [4] was 1 each time.

Take `O=C(c1ccc([N+](=O)[O-])o1)N1CCc2ccccc21`: the MIC90 in assay [1] and in assay [2] was over 4 µg/mL throughout.

In the case of `NNC(=O)c1ccncc1` [ISONIAZID], the MIC90 in assay [1] and in assay [2] was over 40 µg/mL in each case.

`CO[C@H]1/C=C/O[C@@]2(C)Oc3c(C)c(O)c4c(O)c(c(/C=N/N5CCN(C)CC5)c(O)c4c3C2=O)NC(=O)/C(C)=C\C=C\[C@H](C)[C@H](O)[C@@H](C)[C@@H](O)[C@@H](C)[C@H](OC(C)=O)[C@@H]1C` [RIFAMPIN]: the MIC90 in assay [1] and in assay [2] was over 40 µg/mL each time.

Regarding `O=C(c1ccc([N+](=O)[O-])o1)N1CC/C(=N\OCc2ccccc2)C1`, the MIC90 in assay [1] turned out to be 0.207 µg/mL (≈ 0.629 µM); in assay [2], 0.38 µg/mL (≈ 1.15 µM). Further, the Ratio in assay [3] and in assay [4] was 1 throughout.

As to `CO/N=C1\CCN(C(=O)c2ccc([N+](=O)[O-])o2)C1`, the results for the MIC90 in assay [1] and in assay [2] were 1.93 µg/mL (≈ 7.61 µM) and 1.91 µg/mL (≈ 7.54 µM), respectively. For the same compound, the Ratio in assay [3] and in assay [4] was 1 each time.
